Patent US12152038B2, “Vasopressin receptor antagonists and products and methods related thereto” (Neumora Therapeutics, Inc., priority 2017, dated 2024)

Assays:
[1] = Wild-type MDCK permeability and efflux assay (Papp, efflux ratio); format: in vitro ADME; details: dog, pH 7.4, wild-type MDCK cells; for efflux ratio at 1 h, 10 μM: Papp B>A/Papp A>B, read-out: ER WT (Efflux Ratio)
Protocol: (§1) The MDR1-MDCK effective efflux assay was performed as described in the BioFocus Standard Operating Procedure, ADME-SOP-56. Both wild-type (WT) and MDR1-MDCK cells (Solvo Biotechnology) were seeded onto 24-well Transwell plates at 2.35×10^5 cells per well and used in confluent monolayers after a 3 day culture at 37° C. under 5% CO2. For both cell types, test and control compounds (propranolol, vinblastine) were added (10 μM, 0.1% DMSO final, n=2) to donor compartments of the Transwell plate assembly in assay buffer (Hanks balanced salt solution supplemented with 25 mM HEPES, adjusted to pH 7.4) for both apical to basolateral (A>B) and basolateral to apical (B>A) measurements. Incubations were performed at 37° C., with samples removed from both donor and acceptor chambers at T=0 and 1 hour and compound analysed by mass spectrometry (LC-MS/MS) including an analytical internal standard.
(§2) Apparent permeability (Papp) values were determined from the relationship: Papp=[CompoundAcceptor T=end]×V Acceptor/([Compound Donor T=0]×V Donor)/incubation time×V Donor/Area×60×10^−6 cm/s
(§3) In this equation, V is the volume of each Transwell compartment (apical 125 μL, basolateral 600 μL), and concentrations are the relative MS responses for compound (normalized to internal standard) in the donor chamber before incubation and acceptor chamber at the end of the incubation, and Area is the area of cells exposed for drug transfer (0.33 cm^2).
(§4) Efflux ratios (Papp B>A/Papp A>B) were calculated for each compound from the mean Papp values in each direction for both wild-type and MDR1-MDCK cells.
(§5) In order to confirm the involvement of MDR1 in any efflux seen, an “effective efflux ratio” (EER) was calculated by comparing compound efflux ratios (ER) in the two cell types by the following equation: EER=ER(MDR1-MDCK)/ER(wild-type MDCK)
(§6) This ratio illustrates the effect of the over-expressed MDR1 normalised for the background movement of compound through the wild-type cells.
(§7) Lucifer Yellow (LY) was added to the apical buffer in all wells to assess viability of the cell layer. […] Recoveries<50% indicates compound solubility, stability or binding issues, thereby reducing the reliability of a result.
(§8) The inherent ability of a potential drug molecule to penetrate the blood brain barrier and avoid efflux by transporters expressed in the brain, can be roughly correlated with the Papp(A-B) and the efflux ratio (as defined above), respectively. A potential drug molecule with an apparent permeability<7 (10^−6 cm/sec) has low permeability (+), >7 (10^−6 cm/sec) but <10 (10^−6 cm/sec) has moderate permeability (++), >10 (10^−6 cm/sec) but <20 (10^−6 cm/sec) has good permeability (+++), and >20 (10^−6 cm/sec) is highly permeable (++++). High permeability in the WT and MDCK II cell permeability assay increases the probability of blood brain barrier penetration and access to the CNS. A potential drug molecule in the above assay system with an efflux ratio or effective efflux ratio of <1 has low probability of being an efflux substrate (++++), >1 but <2 has moderate probability of being an efflux substrate (+++), >2 but <3 has has an increased probability of being an efflux substrate (++), and >3 has a high probability of being an efflux substrate (+). If a potential drug molecule is an efflux substrate, the molecule will have a low probability of reaching exposures in the brain (site of action) that will result in efficacious levels of receptor occupancy.

[2] = tested on: wild-type (WT) MDCK cells; test: as above; format: in vitro ADME; details: for Papp AB WT: A->B; for ER WT (Efflux Ratio): Papp B>A/Papp A>B
Protocol: as §1, §2, §3, §4, §5, §6, §7, §8

Cc1nccnc1N1CC2(CN(C(=O)N3c4ccc(Cl)cc4OCC3C)C2)C1 (centres unmarked) [20-10]
Papp A→B at 1 h, 10 μM [1]: > 20 ×10⁻⁶ cm/s
efflux ratio at 1 h, 10 μM [1]: < 1

CC1COc2cc(F)c(F)cc2N1C(=O)N1CC2(C1)CN(c1ccc(F)cn1)C2 (centres unmarked) [19-5]
Papp A→B at 1 h, 10 μM [1]: > 20 ×10⁻⁶ cm/s
efflux ratio at 1 h, 10 μM [1]: < 1

COc1ccnc(N2CC3(CN(C(=O)N4c5ccc(Cl)cc5OCC4C)C3)C2)c1 (single isomer, unassigned) [20-8-B]
Papp A→B at 1 h, 10 μM [1]: > 20 ×10⁻⁶ cm/s
efflux ratio at 1 h, 10 μM [1]: < 1

O=C(N1CC2(C1)CN(c1ccc(F)cn1)C2)N1CCOCc2cc(Cl)ccc21 [8-4]
Papp A→B at 1 h, 10 μM [1]: > 20 ×10⁻⁶ cm/s
efflux ratio at 1 h, 10 μM [1]: 1 to 2

O=C(N1CC2(C1)CN(c1ccc(F)cn1)C2)N1CCC(F)(F)c2cc(Cl)ccc21 [17-1, (6-chloro-4,4-difluoro-3,4-dihydroquinolin-1(2H)-yl)(6-(5-fluoropyridin-2-yl)-2,6-diazaspiro[3.3]heptan-2-yl)methanone]
Papp A→B at 1 h, 10 μM [1]: > 20 ×10⁻⁶ cm/s
efflux ratio at 1 h, 10 μM [1]: < 1

CC1COc2cc(F)ccc2N1C(=O)N1CC2(C1)CN(c1cc(C#N)ccn1)C2 (single isomer, unassigned) [20-3-B]
Papp A→B at 1 h, 10 μM [1]: > 20 ×10⁻⁶ cm/s
efflux ratio at 1 h, 10 μM [1]: < 1

CC1COc2cc(Cl)c(F)cc2N1C(=O)N1CC2(C1)CN(c1cccnn1)C2 (single isomer, unassigned) [19-4-A]
Papp A→B at 1 h, 10 μM [1]: > 20 ×10⁻⁶ cm/s
efflux ratio at 1 h, 10 μM [1]: 1 to 2

Cc1cncc(N2CC3(CN(C(=O)N4c5ccc(F)cc5OCC4C)C3)C2)n1 (centres unmarked) [20-2]
Papp A→B at 1 h, 10 μM [1]: > 20 ×10⁻⁶ cm/s
efflux ratio at 1 h, 10 μM [1]: 1 to 2

O=C(N1CC2(C1)CN(c1ccccn1)C2)N1CCOc2cc(Cl)ccc21 [8-2]
Papp A→B at 1 h, 10 μM [1]: > 20 ×10⁻⁶ cm/s
efflux ratio at 1 h, 10 μM [1]: < 1

O=C(N1CC2(C1)CN(c1cnccn1)C2)N1CCc2cc(Cl)ccc21 [8-14]
Papp A→B at 1 h, 10 μM [1]: > 20 ×10⁻⁶ cm/s
efflux ratio at 1 h, 10 μM [1]: 1 to 2

O=C(N1CC2(C1)CN(c1ccc(F)cn1)C2)N1CCOc2cc(Cl)ccc21 [9-7]
Papp A→B at 1 h, 10 μM [1]: > 20 ×10⁻⁶ cm/s
efflux ratio at 1 h, 10 μM [1]: < 1

Cc1ccnc(N2CC3(CN(C(=O)N4c5ccc(F)cc5OCC4C)C3)C2)c1 (single isomer, unassigned) [20-4-B]
Papp A→B at 1 h, 10 μM [1]: > 20 ×10⁻⁶ cm/s
efflux ratio at 1 h, 10 μM [1]: < 1

O=C(N1CC2(C1)CN(c1ccccn1)C2)N1CCOCc2cc(Cl)ccc21 [8-12]
Papp A→B at 1 h, 10 μM [1]: > 20 ×10⁻⁶ cm/s
efflux ratio at 1 h, 10 μM [1]: < 1

COc1ccnc(N2CC3(CN(C(=O)N4c5ccc(Cl)cc5OCC4C)C3)C2)c1 (centres unmarked) [20-8]
Papp A→B at 1 h, 10 μM [1]: > 20 ×10⁻⁶ cm/s
efflux ratio at 1 h, 10 μM [1]: < 1

CC1COc2cc(Cl)ccc2N1C(=O)N1CC2(C1)CN(c1noc3cccnc13)C2 (centres unmarked) [18-3]
Papp A→B at 1 h, 10 μM [1]: > 20 ×10⁻⁶ cm/s
efflux ratio at 1 h, 10 μM [1]: < 1

Cc1ccnc(N2CC3(CN(C(=O)N4c5ccc(Cl)cc5OCC4C)C3)C2)c1 (centres unmarked) [20-11]
Papp A→B at 1 h, 10 μM [1]: > 20 ×10⁻⁶ cm/s
efflux ratio at 1 h, 10 μM [1]: < 1

CC1COc2cc(Cl)c(F)cc2N1C(=O)N1CC2(C1)CN(c1ncccn1)C2 (single isomer, unassigned) [19-2-B]
Papp A→B at 1 h, 10 μM [1]: > 20 ×10⁻⁶ cm/s
efflux ratio at 1 h, 10 μM [1]: 1 to 2

COc1ccnc(N2CC3(CN(C(=O)N4c5ccc(Cl)cc5OCC4C)C3)C2)n1 (single isomer, unassigned) [20-9-B]
Papp A→B at 1 h, 10 μM [1]: > 20 ×10⁻⁶ cm/s
efflux ratio at 1 h, 10 μM [1]: < 1

CC1COc2cc(F)ccc2N1C(=O)N1CC2(C1)CN(c1noc3ccccc13)C2 (single isomer, unassigned) [4-3-B]
Papp A→B at 1 h, 10 μM [1]: > 20 ×10⁻⁶ cm/s
efflux ratio at 1 h, 10 μM [1]: < 1

Cc1ccnc(N2CC3(CN(C(=O)N4c5ccc(Cl)cc5OCC4C)C3)C2)n1 (single isomer, unassigned) [20-12-B]
Papp A→B at 1 h, 10 μM [1]: > 20 ×10⁻⁶ cm/s
efflux ratio at 1 h, 10 μM [1]: < 1

CC1COc2cc(F)ccc2N1C(=O)N1CC2(C1)CN(c1ccc(F)cn1)C2 (single isomer, unassigned) [12-1-B]
Papp AB WT [2]: ++++ (>20 (10^−6 cm/sec) is highly permeable (++++))
ER WT (Efflux Ratio) [2]: ++++ (efflux ratio or effective efflux ratio of <1 has low probability of being an efflux substrate (++++))

O=C(N1CC2(C1)CN(c1ccc(F)cn1)C2)N1CCC(O)c2cc(Cl)ccc21 (centres unmarked) [13-1, (6-chloro-4-hydroxy-3,4-dihydroquinolin-1(2H)-yl)(6-(5-fluoropyridin-2-yl)-2,6-diazaspiro[3.3]heptan-2-yl)methanone]
Papp A→B at 1 h, 10 μM [1]: > 20 ×10⁻⁶ cm/s
efflux ratio at 1 h, 10 μM [1]: < 1

CC1COc2cc(Cl)ccc2N1C(=O)N1CC2(C1)CN(c1noc3cccnc13)C2 (single isomer, unassigned) [18-3-B]
Papp A→B at 1 h, 10 μM [1]: > 20 ×10⁻⁶ cm/s
efflux ratio at 1 h, 10 μM [1]: < 1

CC1COc2cc(Cl)ccc2N1C(=O)N1CC2(C1)CN(c1cccnn1)C2 (single isomer, unassigned) [9-1-B]
Papp A→B at 1 h, 10 μM [1]: > 20 ×10⁻⁶ cm/s
efflux ratio at 1 h, 10 μM [1]: 1 to 2

CC1COc2cc(Cl)c(F)cc2N1C(=O)N1CC2(C1)CN(c1cccnn1)C2 (centres unmarked) [19-4]
Papp A→B at 1 h, 10 μM [1]: > 20 ×10⁻⁶ cm/s
efflux ratio at 1 h, 10 μM [1]: < 1

CC1COc2cc(F)c(F)cc2N1C(=O)N1CC2(C1)CN(c1ncccn1)C2 (single isomer, unassigned) [19-1-B]
Papp A→B at 1 h, 10 μM [1]: > 20 ×10⁻⁶ cm/s
efflux ratio at 1 h, 10 μM [1]: 1 to 2

O=C(N1CC2(C1)CN(c1cnccn1)C2)N1CCOc2cc(Cl)ccc21 [8-3]
Papp A→B at 1 h, 10 μM [1]: > 20 ×10⁻⁶ cm/s
efflux ratio at 1 h, 10 μM [1]: < 1

Cc1cncc(N2CC3(CN(C(=O)N4c5ccc(F)cc5OCC4C)C3)C2)n1 (single isomer, unassigned) [20-2-A]
Papp A→B at 1 h, 10 μM [1]: > 20 ×10⁻⁶ cm/s
efflux ratio at 1 h, 10 μM [1]: < 1

O=C(N1CC2(C1)CN(c1ccc(F)cn1)C2)N1CCC(O)c2cc(Cl)ccc21 (single isomer, unassigned) [13-1-A]
Papp A→B at 1 h, 10 μM [1]: > 20 ×10⁻⁶ cm/s
efflux ratio at 1 h, 10 μM [1]: < 1

O=C(N1CC2(C1)CN(c1ccccn1)C2)N1CCC(O)c2cc(Cl)ccc21 (single isomer, unassigned) [13-2-B]
Papp A→B at 1 h, 10 μM [1]: > 20 ×10⁻⁶ cm/s
efflux ratio at 1 h, 10 μM [1]: 1 to 2

Cc1cncc(N2CC3(CN(C(=O)N4c5ccc(F)cc5OCC4C)C3)C2)n1 (single isomer, unassigned) [20-2-B]
Papp AB WT [2]: ++++ (>20 (10^−6 cm/sec) is highly permeable (++++))
ER WT (Efflux Ratio) [2]: ++++ (efflux ratio or effective efflux ratio of <1 has low probability of being an efflux substrate (++++))

Cc1nc(N2CC3(CN(C(=O)N4c5ccc(Cl)cc5OCC4C)C3)C2)ncc1F (single isomer, unassigned) [20-7-B]
Papp AB WT [2]: ++++ (>20 (10^−6 cm/sec) is highly permeable (++++))
ER WT (Efflux Ratio) [2]: ++++ (efflux ratio or effective efflux ratio of <1 has low probability of being an efflux substrate (++++))

COc1ccnc(N2CC3(CN(C(=O)N4c5ccc(Cl)cc5OCC4C)C3)C2)n1 (centres unmarked) [20-9]
Papp A→B at 1 h, 10 μM [1]: > 20 ×10⁻⁶ cm/s
efflux ratio at 1 h, 10 μM [1]: < 1

Cc1nccnc1N1CC2(CN(C(=O)N3c4ccc(Cl)cc4OCC3C)C2)C1 (single isomer, unassigned) [20-10-A]
Papp A→B at 1 h, 10 μM [1]: > 20 ×10⁻⁶ cm/s
efflux ratio at 1 h, 10 μM [1]: < 1

O=C(N1CC2(C1)CN(c1ccc(F)cn1)C2)N1CCc2cc(Cl)ccc21 [8-11]
Papp A→B at 1 h, 10 μM [1]: > 20 ×10⁻⁶ cm/s
efflux ratio at 1 h, 10 μM [1]: < 1

CC1COc2cc(F)ccc2N1C(=O)N1CC2(C1)CN(c1noc3ccccc13)C2 (centres unmarked) [4-3]
Papp A→B at 1 h, 10 μM [1]: > 20 ×10⁻⁶ cm/s
efflux ratio at 1 h, 10 μM [1]: < 1

CC1COc2cc(Cl)ccc2N1C(=O)N1CC2(C1)CN(c1cc(C#N)ccn1)C2 (single isomer, unassigned) [20-6-B]
Papp AB WT [2]: ++++ (>20 (10^−6 cm/sec) is highly permeable (++++))
ER WT (Efflux Ratio) [2]: ++++ (efflux ratio or effective efflux ratio of <1 has low probability of being an efflux substrate (++++))
